{"source": "patent US20240336938A1", "about": "“COMPOSITIONS AND METHODS FOR EFFECTIVE DELIVERY OF POLYNUCLEOTIDES TO CELLS” (WUHAN UNIVERSITY, priority 2021, published 2024)", "key": {"STING [1]": {"system": "STING", "test": "STING inhibitor pretreatment of T cells before DNA electroporation", "type": "cell-based, human"}, "STING [2]": {"system": "STING", "test": "STING inhibitor pretreatment of THP-1 cells before HSV-1 stimulation, qPCR", "type": "cell-based, human", "conditions": "THP1 cells, indicated doses"}}}
{"smiles": "CCc1ccc(NC(=O)Nc2c[nH]c3ccccc23)cc1", "note": "[H151]", "values": [{"measurement": "IFNβ and ISG56 expression in DNA transfected T cells under inhibitor", "setting": "STING [1]; 1 μM pretreatment, qPCR", "value": "upregulated"}, {"measurement": "rescue of DNA-induced cell death", "setting": "STING [1]; 1 μM, 16 h pretreatment, cell number 72 h post-EP", "value": "failed to rescue DNA-induced cell death"}, {"measurement": "ISG56 and IFN-β response to HSV-1", "setting": "STING [2]", "value": "positive dose-response"}]}
